Measured values taken from patent US20140135310A1, “SULPHONAMIDE DERIVATIVES OF ALICYCLIC AMINES FOR THE TREATMENT OF CENTRAL NERVOUS SYSTEM DISEASES” (Adamed Sp. z o.o., priority 2011, published 2014).

Legend:
[1] = molecular target: T1, 5-HT6 receptor (Homo sapiens, UniProt P50406); experiment: Radioligand binding assay, serotoninergic 5-HT6 receptors; settings: binding assay result in %, Table 5a;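 also: test compound at 1 µM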
T1 construct: purchased PerkinElmer
From the text: (§1) The specific ligand binding to the receptors is defined as the difference between the total binding and the non-specific binding determined in the presence of the excess of unlabelled ligand.
(§2) The results are expressed as a percent of control specific binding ((measured specific binding/control specific binding)×100) and as a percent inhibition of control specific binding (100−((measured specific binding/control specific binding)×100)) obtained in the presence of the test compounds. The specific ligand binding to the receptors is defined as the difference between the total binding and the nonspecific binding determined in the presence of an excess of unlabelled ligand. Scintillation counting was the method of detection of ligand binding. The IC50 values (concentration causing a half-maximal inhibition of control specific binding) were determined by non-linear regression analysis of the competition curves generated with mean replicate values using Hill equation curve fitting (Y=D+[(A−D)/(1+(C/C50)nH)], where Y=specific binding, D=minimum specific binding, A=maximum specific binding, C=compound concentration, C50=IC50, and nH=slope factor). This analysis was performed using a software developed at Cerep (Hill software) and validated by comparison with data generated by the commercial software SigmaPlot® 4.0 for Windows® (© 1997 by SPSS Inc.). The inhibition constants (Ki) were calculated using the Cheng Prusoff equation (Ki=IC50/(1+(L/KD)), where L=concentration of radioligand in the assay, and KD=affinity of the radioligand for the receptor). A scatchard plot was used to determine the Kd.
(§3) Experimental conditions for tests are given in Table 4, and results of tests for representative compounds of the invention are given in Table 5a and 5b (receptors 5-HT1A, 5-HT2A, 5-HT6 and 5-HT7) and in Table 6 (receptors 5-HT2C).
5-HT6: Bryan L. Roth. Assay Protocol Book. University of North Carolina At Chapel Hill. National Institute of Mental Health. Psychoactive Drug Screening Program. Available on-line at 31 Aug. 2008: http://pdsp.med.unc.edu/UNC-CH %20Protocol%20Book.pdf

[2] = molecular target: T2, 5-HT1A receptor (rat hippocampus) (Rattus norvegicus, UniProt P19327); experiment: Radioligand binding assay, serotoninergic 5-HT1A receptors; settings: binding assay result in %, Table 5a;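 also: test compound at 1 µM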
T2 construct: hippocampus; from tissue; host or cells: rat hippocampus
T2 sequence (P19327 1-422): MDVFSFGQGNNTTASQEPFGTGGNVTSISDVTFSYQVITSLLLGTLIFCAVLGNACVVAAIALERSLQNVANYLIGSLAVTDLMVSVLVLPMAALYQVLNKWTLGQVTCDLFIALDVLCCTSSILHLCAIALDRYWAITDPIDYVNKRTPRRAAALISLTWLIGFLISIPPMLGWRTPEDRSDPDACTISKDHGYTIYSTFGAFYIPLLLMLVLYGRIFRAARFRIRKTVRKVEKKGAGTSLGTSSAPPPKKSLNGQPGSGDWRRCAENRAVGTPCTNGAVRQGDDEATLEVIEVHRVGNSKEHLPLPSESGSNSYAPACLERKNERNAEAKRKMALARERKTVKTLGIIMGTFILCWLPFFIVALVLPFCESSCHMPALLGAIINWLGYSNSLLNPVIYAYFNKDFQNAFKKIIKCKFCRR
From the text: as §1, §2, §3

[3] = molecular target: T3, serotonin transporter (SERT) (Homo sapiens, UniProt P31645); experiment: Radioligand binding assay, serotonin transporter (SERT); settings: binding assay, test compound 1×10^−6 M
T3 construct: expressed in transfected cells; host or cells: CHO cells
From the text: as §1, §2
Experimental conditions for tests are given in Table 12, and results of tests for representative compounds are given in Tables 13a and 13b.

[4] = molecular target: T4, 5-HT7 receptor (Homo sapiens, UniProt P34969); experiment: Radioligand binding assay, serotoninergic 5-HT7 receptors; settings: binding assay result in %, Table 5a;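 also: test compound at 1 µM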
T4 construct: purchased PerkinElmer
From the text: as §1, §2, §3
5-HT7: Bryan L. Roth. Assay Protocol Book. University of North Carolina At Chapel Hill. National Institute of Mental Health. Psychoactive Drug Screening Program. Available on-line at 31 Aug. 2008: http://pdsp.med.unc.edu/UNC-CH %20Protocol%20Book.pdf

[5] = molecular target: T5, 5-HT2A receptor (Homo sapiens, UniProt P28223); experiment: Radioligand binding assay, serotoninergic 5-HT2A receptors; settings: binding assay result in %, Table 5a
T5 construct: purchased PerkinElmer
From the text: as §1, §2
5-HT2A: Bryan L. Roth. Assay Protocol Book. University of North Carolina At Chapel Hill. National Institute of Mental Health. Psychoactive Drug Screening Program. Available on-line at 31 Aug. 2008: http://pdsp.med.unc.edu/UNC-CH%20Protocol%20Book.pdf

[6] = molecular target: dopaminergic receptors D3 (Homo sapiens, UniProt P35462); experiment: Radioligand binding assay, dopaminergic D3 receptors; settings: test compound 1×10^−6 M
From the text: as §1, §2
(§4) Experimental conditions for tests are given in Table 1, the results of tests for representative compounds are given in Tables 2a and 2b (receptors D2 and D3) and in Table 3 (receptors D4).

[7] = molecular target: dopaminergic receptors D2 (Homo sapiens, UniProt P14416); experiment: Radioligand binding assay, dopaminergic D2 receptors; settings: binding assay, test compound 1×10^−6 M
From the text: as §1, §2, §4

dopaminergic receptors D3, sequence (P35462 whole entry): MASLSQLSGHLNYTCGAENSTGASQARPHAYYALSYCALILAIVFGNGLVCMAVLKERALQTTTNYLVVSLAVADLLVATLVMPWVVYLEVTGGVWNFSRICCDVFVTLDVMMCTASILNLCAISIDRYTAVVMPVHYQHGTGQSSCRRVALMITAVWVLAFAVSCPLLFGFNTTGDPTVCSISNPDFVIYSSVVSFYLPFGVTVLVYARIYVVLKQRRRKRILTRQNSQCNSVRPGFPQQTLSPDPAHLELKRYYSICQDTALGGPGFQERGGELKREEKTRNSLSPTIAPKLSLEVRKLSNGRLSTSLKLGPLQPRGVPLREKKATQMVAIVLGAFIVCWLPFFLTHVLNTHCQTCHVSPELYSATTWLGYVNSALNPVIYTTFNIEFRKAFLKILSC
T3 sequence (P31645 whole entry): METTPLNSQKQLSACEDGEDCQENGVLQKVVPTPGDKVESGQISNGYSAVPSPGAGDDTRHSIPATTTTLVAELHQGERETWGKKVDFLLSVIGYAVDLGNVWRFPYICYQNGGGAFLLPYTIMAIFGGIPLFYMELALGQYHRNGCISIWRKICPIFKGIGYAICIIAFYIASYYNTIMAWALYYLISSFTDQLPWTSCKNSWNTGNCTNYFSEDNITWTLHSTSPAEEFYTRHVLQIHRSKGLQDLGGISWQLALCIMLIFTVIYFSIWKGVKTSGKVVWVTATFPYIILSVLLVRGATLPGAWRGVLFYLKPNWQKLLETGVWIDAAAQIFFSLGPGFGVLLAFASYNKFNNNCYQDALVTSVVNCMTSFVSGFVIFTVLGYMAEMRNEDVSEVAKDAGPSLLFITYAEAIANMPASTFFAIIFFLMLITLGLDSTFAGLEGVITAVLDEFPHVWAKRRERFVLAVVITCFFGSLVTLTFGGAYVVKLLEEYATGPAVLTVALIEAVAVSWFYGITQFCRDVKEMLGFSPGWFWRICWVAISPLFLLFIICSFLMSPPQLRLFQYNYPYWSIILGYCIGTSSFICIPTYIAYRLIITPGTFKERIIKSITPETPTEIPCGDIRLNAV
T4 sequence (P34969 whole entry): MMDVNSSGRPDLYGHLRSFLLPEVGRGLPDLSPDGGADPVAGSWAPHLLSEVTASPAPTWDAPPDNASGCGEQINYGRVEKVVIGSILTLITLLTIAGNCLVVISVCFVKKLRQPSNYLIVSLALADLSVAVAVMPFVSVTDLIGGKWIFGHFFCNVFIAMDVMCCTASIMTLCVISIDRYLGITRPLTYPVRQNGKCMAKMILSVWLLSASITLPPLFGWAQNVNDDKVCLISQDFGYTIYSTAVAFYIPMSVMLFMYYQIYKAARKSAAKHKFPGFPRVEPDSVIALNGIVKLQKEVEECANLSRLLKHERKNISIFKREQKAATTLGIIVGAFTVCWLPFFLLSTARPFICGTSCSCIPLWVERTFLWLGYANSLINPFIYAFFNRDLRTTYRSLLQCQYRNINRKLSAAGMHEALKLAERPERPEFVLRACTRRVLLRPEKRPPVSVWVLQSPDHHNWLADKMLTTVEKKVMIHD
T1 sequence (P50406 whole entry): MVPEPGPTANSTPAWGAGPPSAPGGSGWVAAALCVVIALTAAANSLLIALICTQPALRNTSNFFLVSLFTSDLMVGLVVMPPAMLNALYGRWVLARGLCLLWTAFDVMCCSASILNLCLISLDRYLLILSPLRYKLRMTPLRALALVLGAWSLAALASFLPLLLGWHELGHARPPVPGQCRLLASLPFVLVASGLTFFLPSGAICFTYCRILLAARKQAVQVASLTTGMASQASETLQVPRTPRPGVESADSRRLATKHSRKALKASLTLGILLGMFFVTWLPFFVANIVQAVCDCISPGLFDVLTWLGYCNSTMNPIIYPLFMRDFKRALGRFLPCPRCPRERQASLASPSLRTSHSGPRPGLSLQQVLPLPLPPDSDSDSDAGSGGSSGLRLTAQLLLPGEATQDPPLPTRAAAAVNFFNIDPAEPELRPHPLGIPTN
T5 sequence (P28223 whole entry): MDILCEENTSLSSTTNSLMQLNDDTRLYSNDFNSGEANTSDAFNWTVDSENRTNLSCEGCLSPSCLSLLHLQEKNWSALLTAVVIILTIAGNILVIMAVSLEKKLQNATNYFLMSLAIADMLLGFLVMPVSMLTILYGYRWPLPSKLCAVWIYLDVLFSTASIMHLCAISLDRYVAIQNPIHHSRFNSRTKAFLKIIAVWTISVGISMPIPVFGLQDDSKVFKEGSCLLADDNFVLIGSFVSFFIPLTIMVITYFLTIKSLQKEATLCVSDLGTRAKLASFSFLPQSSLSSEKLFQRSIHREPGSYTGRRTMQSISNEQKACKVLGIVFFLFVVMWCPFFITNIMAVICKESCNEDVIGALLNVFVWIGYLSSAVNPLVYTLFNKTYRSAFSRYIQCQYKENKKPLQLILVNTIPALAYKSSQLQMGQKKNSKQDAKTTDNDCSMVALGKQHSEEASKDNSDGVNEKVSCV
dopaminergic receptors D2, sequence (P14416 whole entry): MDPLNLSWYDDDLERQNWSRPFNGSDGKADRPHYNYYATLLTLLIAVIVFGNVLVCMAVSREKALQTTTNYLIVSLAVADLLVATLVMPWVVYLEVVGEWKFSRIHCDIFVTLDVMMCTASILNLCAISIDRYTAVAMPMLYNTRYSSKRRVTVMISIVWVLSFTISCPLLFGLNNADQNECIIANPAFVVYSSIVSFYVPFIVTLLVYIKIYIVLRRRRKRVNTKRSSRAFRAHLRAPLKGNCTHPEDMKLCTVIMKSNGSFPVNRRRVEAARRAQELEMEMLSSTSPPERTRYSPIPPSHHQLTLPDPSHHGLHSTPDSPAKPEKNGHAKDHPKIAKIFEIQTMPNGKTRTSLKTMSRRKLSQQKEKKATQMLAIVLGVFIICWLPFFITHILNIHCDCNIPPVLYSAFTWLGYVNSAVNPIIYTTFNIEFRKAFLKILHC

Compound | inhibition at 1 µM [1] [%] | inhibition at 1 µM [2] [%] | inhibition at 1 µM [3] [%] | inhibition at 1 µM [4] [%] | inhibition at 1 µM [5] [%] | inhibition at 1 µM [6] [%] | inhibition at 1 µM [7] [%] | 5-HT6 [%] [1] [%] | 5-HT1A [%] [2] [%] | SERT [%] [3] [%] | 5-HT7 [%] [4] [%] | 5-HT2A [%] [5] [%] | D3 [%] [6] [%] | D2 [%] [7] [%]
O=S(=O)(NCC1CCN(CCCc2noc3cc(F)ccc23)C1)c1cccc(Cl)c1 (centres unmarked) [Compound 243, 3-Chloro-N-[[1-[3-(6-fluoro-1,2-benzoxazol-3-yl)propyl]pyrrolidin-3-yl]methyl]benzenesulphonamide] | 75 | 21 | 7 | 89 | 90 | 47 | 14 |  |  |  |  |  |  | 
3-tert-Butyl-N-[[1-[3-(6-fluoro-1,2-benzoxazol-3-yl)propyl]pyrrolidin-3-yl]methyl]benzenesulphonamide [Compound 249] |  |  |  |  |  |  |  | 58 | 23 | 28 | 87 | 79 | 36 | 4
O=S(=O)(NCC1CCN(CCCc2noc3cc(F)ccc23)C1)c1csc2ccccc12 (centres unmarked) [Compound 261, N-[[1-[3-(6-Fluoro-1,2-benzoxazol-3-yl)propyl]pyrrolidin-3-yl]methyl]-benzothiophene-3-sulphonamide] | 97 | 78 | 3 | 104 | 101 | 65 | 88 |  |  |  |  |  |  | 
N-[[1-[3-(6-Fluoro-1,2-benzoxazol-3-yl)propyl]pyrrolidin-3-yl]methyl]-1-methyl-indole-5-sulphonamide [Compound 258] |  |  |  |  |  |  |  | 89 | 64 | 25 | 78 | 98 | 43 | 92
COc1cccc(S(=O)(=O)NC2CCN(CCCc3noc4cc(F)ccc34)C2)c1 (centres unmarked) [Compound 17, N-[1-[3-(6-Fluoro-1,2-benzoxazol-3-yl)propyl]pyrrolidin-3-yl]-3-methoxybenzenesulphonamide] | 76 | 23 | 52 | 80 | 94 | 20 | 80 |  |  |  |  |  |  | 
Cc1cc(S(=O)(=O)NCC2CCN(CCCc3noc4cc(F)ccc34)C2)c(C)s1 (centres unmarked) [Compound 262, N-[[1-[3-(6-Fluoro-1,2-benzoxazol-3-yl)propyl]pyrrolidin-3-yl]methyl]-2,5-dimethyl-thiophene-3-sulphonamide] | 69 | 25 | 26 | 92 | 85 | 44 | 26 |  |  |  |  |  |  | 
O=S(=O)(NCC1CN(CCCc2noc3cc(F)ccc23)C1)c1cc2ccccc2s1 [Compound 153, N-[[1-[3-(6-Fluoro-1,2-benzoxazol-3-yl)propyl]azetidin-3-yl]methyl]-benzothiophene-2-sulphonamide] | 80 | 55 |  | 86 | 96 | 61 | 82 |  |  | 21 |  |  |  | 
4-Fluoro-N-[[1-[3-(6-fluoro-1,2-benzoxazol-3-yl)propyl]azetidin-3-yl]methyl]benzenesulphonamide [Compound 147] |  |  |  |  |  |  |  | 86 | 60 | 24 | 89 | 95 | 74 | 88
O=S(=O)(NCC1CN(CCCc2noc3cc(F)ccc23)C1)c1cccc(O)c1 [Compound 149, N-[[1-[3-(6-Fluoro-1,2-benzoxazol-3-yl)propyl]azetidin-3-yl]methyl]-3-hydroxy-benzenesulphonamide] | 71 | 82 | 22 | 113 | 96 | 39 | 91 |  |  |  |  |  |  | 
O=S(=O)(NC1CCN(CCCc2noc3cc(F)ccc23)CC1)c1cc2ccccc2s1 [Compound 324, N-[1-[3-(6-Fluoro-1,2-benzoxazol-3-yl)propyl]-4-piperidyl]benzothiophene-2-sulphonamide] | 78 | 49 | 18 | 101 | 99 | 41 | 77 |  |  |  |  |  |  | 
O=S(=O)(NC1CCN(CCCc2noc3cc(F)ccc23)CC1)c1csc2ccccc12 [Compound 330, N-[1-[3-(6-Fluoro-1,2-benzoxazol-3-yl)propyl]-4-piperidyl]benzothiophene-3-sulphonamide] | 79 | 82 | 22 | 101 | 102 | 64 | 77 |  |  |  |  |  |  | 
Cc1cccc(S(=O)(=O)NCC2CN(CCCc3noc4cc(F)ccc34)C2)c1 [Compound 142, N-[[1-[3-(6-Fluoro-1,2-benzoxazol-3-yl)propyl]azetidin-3-yl]methyl]-3-methyl-benzenesulphonamide] | 37 | 29 | -4 | 87 | 77 | 45 | 58 |  |  |  |  |  |  | 
O=S(=O)(NCC1CCN(CCCc2noc3cc(F)ccc23)C1)c1ccc(F)cc1 (centres unmarked) [Compound 252, 4-Fluoro-N-[[1-[3-(6-fluoro-1,2-benzoxazol-3-yl)propyl]pyrrolidin-3-yl]methyl]benzenesulphonamide] | 75 | 44 | -2 | 90 | 89 | 43 | 36 |  |  |  |  |  |  | 
O=S(=O)(NC1CCN(CCCc2noc3cc(F)ccc23)C1)c1ccc(Cl)cc1 (centres unmarked) [Compound 208, 4-Chloro-N-[1-[3-(6-fluoro-1,2-benzoxazol-3-yl)propyl]pyrrolidin-3-yl]benzenesulphonamide] | 87 | 9 | -2 | 96 | 100 | 49 | 90 |  |  |  |  |  |  | 
